From PMC8348996, “pH-sensitive dual drug loaded janus nanoparticles by oral delivery for multimodal analgesia” (Journal of Nanobiotechnology, 2021)
Where two headings read alike, the source gives them in different places.

Key:
[1] = In vitro release behavior by dialysis in SGF (pH 1.2) and PBS (pH 7.4); format: physicochemical
Protocol: The release behavior of αCT and Res in vitro was investigated through dialysis. […] The release medium was SGJ (pH 1.2) containing 2% sodium dodecyl sulfate (w/v) and 30 mL PBS (pH 7.4). The release behavior of drugs from JNP was studied under the conditions of 37 ± 0.5 °C and a rotating speed of 100 rpm. At fixed time points (0, 0.25, 0.5, 0.75, 1.0, 1.5, and 2.0 h in SGJ; 0, 0.25, 0.5, 1.0, 2,0, 4.0, 6.0, 8.0, 10.0, 12.0, and 24.0 h in PBS), 1 mL of release medium was removed, and a blank release medium with the same volume and temperature was supplemented. The samples were filtered through a 0.22-μm microporous membrane, and the supernatant was obtained after high-speed centrifugation. The αCT and Res content were determined using HPLC. The cumulative release percentage was calculated, and a release curve was obtained. The formula for cumulative drug release is shown in the following equation, where Ct is the content of two drugs at each sampling point, V0 is the volume of the release medium, V is the sampling volume, and M0 is the initial dosage:3 Cumulative release%=Ct×V0+∑n=1t-1C×V/M0×100%

trypsin = molecular target: T1, trypsin (Sus scrofa, UniProt P00761); experiment: Stability in SIF containing 0.2% trypsin (residual drug content); format: in vitro ADME; details: SIF with 0.2% trypsin, 37 °C, first hour
T1 construct: purchased Gibco Invitrogen Co. (Carlsbad, USA)
Protocol: The effect of trypsin on the stability of αCT/Res-JNPs was also evaluated. αCT/Res-JNPs were centrifuged at 20,000 rpm at 4 °C for 30 min, and then resuspended in SIF. The control group was treated with αCT solution and Res solution. SIFs and trypsin (0.2%, w/v) were mixed at 37 °C for 2 h. At predetermined time points (15, 30, 60, and 120 min), HCl solution (0.1 M) was added to terminate the trypsin activity. Subsequently, dichloromethane was added to dissolve the organic phase contained in the JNP solution. The pH of the solution was then adjusted to 4.0 using hydrochloric acid to dissolve the internal aqueous phase of the JNP. Subsequently, samples were collected, and the contents of residual αCT and Res in the JNP samples were analyzed via HPLC.

in vivo = experiment: in vivo; parameters: species or system SD rats
Protocol: SD rats fasted but drank water freely for 24 h before administration. The dosage of JNP group was 50 µg·kg ^−1 (calculated using αCT), and the other groups were converted according to the ratio of their drug loading to αCT. After intragastric administration, blood samples were collected at 0.25, 0.5, 1, 4, 8, 12, and 24 h. […] PKSolver software (V2.0, China Pharmaceutical University, China) was used to process the data, compare the blood PK parameters of each group after administration, and generate the drug concentration–time curve.

Caco-2 monolayers = experiment: Trans-monolayer transport; format: in vitro ADME; details: Caco-2 cell model, AP to BL, 4 h
Protocol: (§1) Caco-2, Caco-2/HT29-MTX (7/3), and Caco-2/HT29-MTX/Raji cell models were established for the trans-monolayer transport study, as previously described. The assay was carried out from the AP side (pH 6.5) to the BL side (pH 7.4) using HBSS-HEPES buffer. […] At 0, 0.5, 1, 2, and 4 h, a certain amount of sample was taken from the basolateral compartment, and the same volume of HBSS-HEPES buffer was added.

[2] = system: Caco-2/HT29-MTX monolayers; experiment: Trans-monolayer transport; format: in vitro ADME; details: Caco2-HT29/MTX cell model, AP to BL, 4 h
Protocol: as §1

[3] = system: Caco-2/HT29-MTX/Raji monolayers; experiment: Trans-monolayer transport; format: in vitro ADME; details: Caco2-HT29/MTX-Raji cell model, AP to BL, 4 h
Protocol: as §1

[4] = SPIP, n = 3
Protocol: SPIP was performed to determine the absorption and enterocytic uptake of the nanoparticles. The abdominal cavity of SD rats were opened along the midline of the abdomen to expose the intestinal tissue. The jejunum, ileum, duodenum, and colon segments were measured, and incisions were made at both ends of these segments. Both ends of the incision were intubated and fixed using ligation. The wounds were covered with an absorbent cotton soaked in normal saline and maintained at 37 °C. […] After 60 min, the jejunum, ileum, duodenum, and colon were dehydrated to create frozen Sects. (10 μm). These sections were observed using CLSM, and the fluorescence intensity of each section was quantified.

[5] = Lymphatic transport in mesenteric lymph-cannulated rats; format: in vivo, SD rats
Protocol: The methods of mesenteric lymphatic intubation were based on previous studies. Briefly, SD rats (300–350 g) were given 2 mL peanut oil via gavage 1 h before administration to induce lymphoid production. One hour later, the animals were anesthetized via intraperitoneal injection of 50 mg·kg^−1 pentobarbital sodium. The rats were placed in the supine position on the ventral side and their limbs were fixed. A midline abdominal incision (approximately 4 cm long) was made at 2/3 of the line connecting the xiphoid and pubic symphysis. […] The trunk of the mesenteric lymphatic vessels (approximately 1 cm) was then separated. A 4-mm PE-25 pipe with a PE-50 hose was connected, the joint of each pipe was fully fixed, and the pipe was filled with 1% EDTA-2Na. […] A small incision was made in the mesenteric lymphatic vessel, and the PE-25 tube end was intubated. When the lymphatic fluid completely filled the tube and drained smoothly, the intubation site was fixed. After resuscitation, the rats were allowed to drink 5% glucose solution freely and recover overnight.

[6] = humans and animals; cited from earlier work
Caco-2 cells [7] = experiment: Mechanism of cell uptake with specific endocytosis inhibitors (flow cytometry); format: cell-based; details: inhibitor 0.5 h, then FITC-αCT-JNP or FITC-αCT/Res-JNP 2 h; uptake without inhibitor = 100%
Protocol: The mechanism of cell uptake was also investigated. Caco-2 cells in the logarithmic growth phase were seeded in 6-well plates at 3 × 10^5 cells/well and incubated for 48 h. Chlorpromazine (10 μg/mL), genistein (54 μg/mL), amiloride (12 μg/mL), and nocodazole (300 μg/mL) were added to the individual wells as inhibitors and were incubated for 0.5 h. FITC-αCT-JNP and FITC-αCT/Res-JNP were then added and the wells were incubated for another 2 h. The cells were then collected using trypsin and centrifuged at 1000 rpm for 5 min. Cells without any inhibitors were used as controls. Fluorescence intensity was detected using flow cytometry (FACSJazz, BD, USA).

Caco-2 cells [8] = experiment: Cellular uptake of FITC-αCT observed by CLSM; format: cell-based; details: 6 h incubation, 1:20 dilution
Protocol: (§2) Cell culture was carried out according to previously described procedures. HT-29/MTX and Caco-2 cells were seeded into 24-well plates at a density of 1 × 10^5 cells/well and 6 × 10^4 cells/well, respectively. After the cells adhered onto each well, the culture medium was discarded, and three types of samples (FITC-αCT, FITC-αCT-JNP, or FITC-αCT/Res-JNP) at 1:20 dilutions were added. After 6 h, the liquid in the wells was discarded, and the cells were washed with PBS. Each well was fixed with 4% (v/v) paraformaldehyde (0.5 mL) for 20 min, and rinsed with PBS. The cells were then incubated with 0.1% Triton X-100 for 10 min to permeabilize the cell membrane, and then incubated with DAPI for 10 min. After sealing, it was observed using CLSM.

HT29/MTX cells = experiment: Cellular uptake of FITC-αCT observed by CLSM; format: cell-based; details: 6 h incubation, 1:20 dilution
Protocol: as §2

animal models = details: cited from earlier work
[9] = PBS pH 7.4, time point not stated
[10] = Sprague-Dawley, rat, in vivo, po
[11] = rats, intragastric, 50 µg·kg^−1 as αCT, plasma FITC-αCT, n = 5

T1 sequence (P00761 9-231): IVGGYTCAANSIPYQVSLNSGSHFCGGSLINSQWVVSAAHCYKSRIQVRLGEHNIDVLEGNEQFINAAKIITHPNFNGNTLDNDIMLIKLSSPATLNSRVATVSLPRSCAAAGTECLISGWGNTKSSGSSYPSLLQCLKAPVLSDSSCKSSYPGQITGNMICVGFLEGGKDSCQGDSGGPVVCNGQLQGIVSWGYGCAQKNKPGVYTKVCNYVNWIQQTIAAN

With `Oc1ccc(/C=C/c2cc(O)cc(O)c2)cc1` [Res, Resveratrol] the “release of Res in PBS” value [1, 9] was 86.71%, the “release rate of Res” value ([1]; SGF pH 1.2 with 2% sodium dodecyl sulfate, within 1 h) was 93.76% and the “residual amount of Res” value (trypsin) was 47.23%. It also gave an AUC(0-t) (in vivo; [10]) of 84.6 ± 3.8 ng·h/mL, a Cmax (in vivo; [10]) of 92.1 ± 8 ng/mL and an MRT last (in vivo; [10]) of 1.56 ± 0.52 h. The half-life (in vivo; [10]) was 1.09 ± 0.07 h, the Tmax (in vivo; Sprague-Dawley, rat, in vivo, po, time of peak concentration of Res, rats, intragastric) was 0.167 h and the “AUMCt of Res” value (in vivo; rats, intragastric, plasma Res, n = 5) was 118.18 ± 19.08 ng/ml*h^2. The “cumulative transport of Res” value (Caco-2 monolayers) was “approximately 14%”, the cumulative transport [2] was “approximately 6%” and the cumulative transport [3] was “approximately 14%”. The “Ka of Res” value ([4]; colon) was 1.01 ± 0.26 × 10^–2 min^−1, the “Peff of Res” value ([4]; colon) was 1.60 ± 0.44 × 10^–3 cm·min^−1 and the “Ka of Res” value ([4]; duodenum) was 0.99 ± 0.11 × 10^–2 min^−1. For the same molecule, the “Peff of Res” value ([4]; duodenum) was 1.58 ± 0.18 × 10^–3 cm·min^−1, the “Ka of Res” value ([4]; ileum) was 1.91 ± 0.66 × 10^–2 min^−1 and the “Peff of Res” value ([4]; ileum) was 3.26 ± 1.26 × 10^–3 cm·min^−1. The “Ka of Res” value ([4]; jejunum) was 1.55 ± 0.26 × 10^–2 min^−1, the “Peff of Res” value ([4]; jejunum) was 2.57 ± 0.46 × 10^–3 cm·min^−1 and the “time after which Res was no longer detected in lymph” value [5] was 4 h. The oral bioavailability [6] was “almost zero”.

For `N=C(N)NC(=O)c1nc(Cl)c(N)nc1N` [amiloride], the “effect of endocytosis inhibitor on uptake rate of JNP by Caco-2 cells” value (shortened to “effect of endocytosis inhibitor”) (Caco-2 cells [7]) was “significantly reduced the uptake rate of JNP”.

For `CN(C)CCCN1c2ccccc2Sc2ccc(Cl)cc21` [chlorpromazine], the “effect of endocytosis inhibitor” value (Caco-2 cells [7]) was “significantly reduced the uptake rate of JNP”.

For `O=c1c(-c2ccc(O)cc2)coc2cc(O)cc(O)c12` [genistein], the “effect of endocytosis inhibitor” value (Caco-2 cells [7]) was “did not significantly inhibit the cellular uptake of JNP”.

For `COC(=O)Nc1nc2ccc(C(=O)c3cccs3)cc2[nH]1` [nocodazole], the “effect of endocytosis inhibitor” value (Caco-2 cells [7]) was “did not significantly inhibit the cellular uptake of JNP”.

For “FITC-αCT: αCT labeled with fluorescein isothiocyanate (FITC)”, the “cellular uptake of FITC-αCT (green fluorescence, CLSM)” value (Caco-2 cells [8]) was “no obvious green fluorescence”, the “cellular uptake of FITC-αCT (green fluorescence, CLSM)” value (HT29/MTX cells) was “no obvious green fluorescence” and the “cumulative transport of FITC-αCT” value (Caco-2 monolayers) was “approximately 3%”. For the same molecule, the cumulative transport [2] was “approximately 4%” and the cumulative transport [3] was “approximately 4%”.

With α-Cobrotoxin [αCT] the “release of αCT in PBS” value [1, 9] was 67.89%, the “cumulative release of αCT” value ([1]; SGF pH 1.2, 2 h, 37 °C) was “approximately 40.17%” and the “residual amount of αCT” value (trypsin) was 25.60%. For the same molecule, the “t1/2 of αCT” value (in vivo; rats, intragastric) was 0.17 ± 0.03 h, the “time of peak concentration of αCT” value (in vivo; rats, intragastric) was “about 30 min” and the “AUCt of αCT” value (in vivo; [11]) was 67.65 ± 17.91 ng·h/mL. For the same molecule, the “AUMCt of αCT” value (in vivo; [11]) was 112.44 ± 12.97 ng/ml*h^2, the “Cmax of αCT” value (in vivo; [11]) was 26.85 ± 3.00 ng/mL and the “Tmax of αCT” value (in vivo; [11]) was 0.5 h. For the same molecule, the “t1/2β of αCT” value (in vivo; [11]) was 2.69 ± 0.36 h, the “Ka of αCT” value ([4]; colon) was 0.85 ± 0.14 × 10^–2 min^−1 and the “Peff of αCT” value ([4]; colon) was 1.34 ± 0.23 × 10^–3 cm·min^−1. For the same molecule, the “Ka of αCT” value ([4]; duodenum) was 0.81 ± 0.11 × 10^–2 min^−1, the “Peff of αCT” value ([4]; duodenum) was 1.27 ± 0.19 × 10^–3 cm·min^−1 and the “Ka of αCT” value ([4]; ileum) was 0.91 ± 0.03 × 10^–2 min^−1. The “Peff of αCT” value ([4]; ileum) was 1.44 ± 0.05 × 10^–3 cm·min^−1, the “Ka of αCT” value ([4]; jejunum) was 0.98 ± 0.05 × 10^–2 min^−1 and the “Peff of αCT” value ([4]; jejunum) was 1.56 ± 0.10 × 10^–3 cm·min^−1. For the same molecule, the “time after which αCT was no longer detected in lymph” value [5] was 6 h, the “effect on pain sensitivity” value (animal models; high dose 100 μg·kg^−1, intraperitoneal injection) was “significantly enhance pain sensitivity” and the “effect on pain threshold and action ability” value (animal models; low dose, animal models) was “improve the pain threshold and action ability”.
